Experimental data: paper PMC10653547, “Synergistic effect of two antimicrobial peptides, BP203 and MAP-0403 J-2 with conventional antibiotics against colistin-resistant Escherichia coli and Klebsiella pneumoniae clinical isolates” (PLOS ONE, 2023)

Key:
[1] = test system: colistin-resistant E. coli clinical isolates; experiment: Disk diffusion antimicrobial susceptibility testing (CLSI); assay type: cell-based, Escherichia coli; details: for %Resistance: ten E. coli isolates, disk diffusion
Method: (§1) Ten non-duplicate clinical isolates of colistin-resistant E. coli (EC) and ten non-duplicate clinical isolates of colistin-resistant K. pneumoniae (KP) were obtained from the bacterial repository of the Division of Infectious Diseases and Tropical Medicine, Department of Medicine, Faculty of Medicine Siriraj Hospital, Mahidol University. The species identification was conducted through standard biochemical tests. Antimicrobial susceptibility testing was carried out using the disk diffusion method following CLSI guidelines. Additionally, the assessment of colistin resistance in all isolates was performed by broth microdilution following CLSI recommendations. […] The amino acid sequences of BP203 and MAP-0403 J-2 were retrieved from previous studies. These peptides are BP100 and MAP-0403 analogs, respectively. […] Antibiotic disks and defibrinated sheep blood were obtained from Oxoid (Basingstoke, UK). All culture media were purchased from Becton Dickinson (Frankin Lakes, NJ, USA). All chemicals were obtained from Sigma-Aldrich (St. Louis, MO, USA).

[2] = test system: colistin-resistant K. pneumoniae clinical isolates; experiment: as above; assay type: cell-based, Klebsiella pneumoniae; details: for %Resistance: ten K. pneumoniae isolates, disk diffusion; on Interpreted results of disk diffusion: key: R: resistant; I: intermediate; SDD: susceptible-dose dependent; S: sensitive
Method: as §1

| Compound | Interpreted results of disk diffusion ([1]; EC-01) | Interpreted results of disk diffusion ([1]; EC-02) | Interpreted results of disk diffusion ([1]; EC-03) | Interpreted results of disk diffusion ([1]; EC-04) | Interpreted results of disk diffusion ([1]; EC-05) | Interpreted results of disk diffusion ([1]; EC-06) | Interpreted results of disk diffusion ([1]; EC-07) | Interpreted results of disk diffusion ([1]; EC-08) | Interpreted results of disk diffusion ([1]; EC-09) | Interpreted results of disk diffusion ([1]; EC-10) | %Resistance [1] | Interpreted results of disk diffusion ([2]; KP-01) | Interpreted results of disk diffusion ([2]; KP-02) | Interpreted results of disk diffusion ([2]; KP-03) | Interpreted results of disk diffusion ([2]; KP-04) | Interpreted results of disk diffusion ([2]; KP-05) | Interpreted results of disk diffusion ([2]; KP-06) | Interpreted results of disk diffusion ([2]; KP-07) | Interpreted results of disk diffusion ([2]; KP-08) | %Resistance [2] | further results |
| --- | --- | --- | --- | --- | --- | --- | --- | --- | --- | --- | --- | --- | --- | --- | --- | --- | --- | --- | --- | --- | --- |
| NCC[C@H](O)C(=O)N[C@@H]1C[C@H](N)[C@@H](O[C@H]2O[C@H](CN)[C@@H](O)[C@H](O)[C@H]2O)[C@H](O)[C@H]1O[C@H]1O[C@H](CO)[C@@H](O)[C@H](N)[C@H]1O [AK, amikacin] | S | S | S | S | S | S | S | S | S | S | 0% | S | R | R | R | I | R | S | S | 40% | Interpreted results of disk diffusion ([2]; KP-09): S; Interpreted results of disk diffusion ([2]; KP-10): S |
| C[C@H]1[C@H](NC(=O)/C(=N\OC(C)(C)C(=O)O)c2csc(N)n2)C(=O)N1S(=O)(=O)O [ATM, aztreonam] | R | R | R | R | S | I | R | S | R | R | 70% | – | – | – | – | – | – | – | – | 100% | – |
| CO/N=C(\C(=O)N[C@@H]1C(=O)N2C(C(=O)O)=C(CSc3nc(=O)c(=O)[nH]n3C)CS[C@H]12)c1csc(N)n1 [CRO, ceftriaxone] | R | R | R | R | R | R | R | R | R | R | 100% | R | R | R | R | R | R | R | R | 100% | Interpreted results of disk diffusion ([2]; KP-09): R; Interpreted results of disk diffusion ([2]; KP-10): R |
| C[C@@H](O)[C@H]1C(=O)N2C(C(=O)O)=C(S[C@@H]3CN[C@H](C(=O)Nc4cccc(C(=O)O)c4)C3)[C@H](C)[C@H]12 [ETP, ertapenem] | S | S | S | S | S | S | S | S | S | S | 0% | R | R | R | R | R | R | R | R | 100% | Interpreted results of disk diffusion ([2]; KP-09): R; Interpreted results of disk diffusion ([2]; KP-10): R |
| CO/N=C(\C(=O)N[C@@H]1C(=O)N2C(C(=O)[O-])=C(C[N+]3(C)CCCC3)CS[C@H]12)c1csc(N)n1 [FEP, cefepime] | R | R | R | R | SDD | S | R | SDD | R | R | 70% | R | R | R | R | R | R | R | R | 100% | Interpreted results of disk diffusion ([2]; KP-09): R; Interpreted results of disk diffusion ([2]; KP-10): R |
| C[C@@H]1O[C@@H]1P(=O)(O)O [FOS, fosfomycin] | S | S | S | R | S | S | S | S | S | S | 10% | S | R | I | R | S | R | S | R | 60% | Interpreted results of disk diffusion ([2]; KP-09): R; Interpreted results of disk diffusion ([2]; KP-10): R |
| CO[C@@]1(NC(=O)Cc2cccs2)C(=O)N2C(C(=O)O)=C(COC(N)=O)CS[C@@H]21 [FOX, cefoxitin] | S | S | S | I | S | S | S | S | S | S | 0% | R | R | R | R | R | R | R | R | 100% | Interpreted results of disk diffusion ([2]; KP-09): R; Interpreted results of disk diffusion ([2]; KP-10): R |
| CNC(C)C1CCC(N)C(OC2C(N)CC(N)C(OC3OCC(C)(O)C(NC)C3O)C2O)O1 (stereo not shown) [GM, gentamicin] | R | S | R | R | R | R | S | R | R | R | 80% | S | R | S | S | S | S | S | S | 10% | Interpreted results of disk diffusion ([2]; KP-09): S; Interpreted results of disk diffusion ([2]; KP-10): S |
